Data published in ChEMBL document CHEMBL5584267, “Discovery of the first selective, small-molecule GFRα2/3 inhibitors through DNA-encoded library technology” (Bioorg Med Chem Lett, 2024).

Experiments:
[1] = target: T1, GDNF family receptor alpha-1 (Homo sapiens, UniProt P56159); assay: Inhibition of GFRalpha1 (unknown origin)
T1 sequence (P56159 whole entry): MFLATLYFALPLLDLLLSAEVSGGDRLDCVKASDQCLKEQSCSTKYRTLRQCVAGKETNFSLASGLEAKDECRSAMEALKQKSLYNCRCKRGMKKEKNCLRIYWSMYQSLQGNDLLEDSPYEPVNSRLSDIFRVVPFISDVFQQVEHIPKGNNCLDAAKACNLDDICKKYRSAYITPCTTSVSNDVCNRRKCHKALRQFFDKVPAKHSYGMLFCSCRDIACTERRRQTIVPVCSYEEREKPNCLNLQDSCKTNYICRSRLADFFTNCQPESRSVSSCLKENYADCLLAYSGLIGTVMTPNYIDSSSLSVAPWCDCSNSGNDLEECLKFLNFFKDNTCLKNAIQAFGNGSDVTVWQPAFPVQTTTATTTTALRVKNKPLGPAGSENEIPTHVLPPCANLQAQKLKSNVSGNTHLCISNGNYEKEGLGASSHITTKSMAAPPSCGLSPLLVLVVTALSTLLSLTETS

[2] = target: T2, Proto-oncogene tyrosine-protein kinase receptor Ret (Homo sapiens, UniProt P07949); assay: Inhibition of RET (unknown origin) assessed as maximal efficacy relative to control
[3] = target: T3, GDNF family receptor alpha-2 (Homo sapiens, UniProt O00451); assay: Inhibition of GFRalpha2 (unknown origin)
T3 sequence (O00451 whole entry): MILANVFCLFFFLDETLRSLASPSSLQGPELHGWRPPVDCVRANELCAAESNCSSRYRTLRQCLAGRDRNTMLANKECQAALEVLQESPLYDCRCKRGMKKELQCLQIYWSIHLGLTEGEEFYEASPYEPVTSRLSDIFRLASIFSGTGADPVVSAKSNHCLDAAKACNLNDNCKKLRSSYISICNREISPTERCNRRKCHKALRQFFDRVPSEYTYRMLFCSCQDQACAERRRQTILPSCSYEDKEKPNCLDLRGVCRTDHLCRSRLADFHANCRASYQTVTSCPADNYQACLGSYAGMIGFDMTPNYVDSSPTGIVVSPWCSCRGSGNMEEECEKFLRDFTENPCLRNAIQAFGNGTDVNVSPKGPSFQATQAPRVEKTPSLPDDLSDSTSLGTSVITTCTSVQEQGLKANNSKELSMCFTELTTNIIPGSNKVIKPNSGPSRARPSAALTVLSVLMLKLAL

[4] = target: T4, GDNF family receptor alpha-2 (Homo sapiens) (UniProt O00451); assay: Inhibition of GFRalpha2 (unknown origin) assessed as maximal efficacy relative to control
T4 sequence (whole entry): T3 sequence (O00451 whole entry)

[5] = target: T5, GDNF family receptor alpha-3 (Homo sapiens, UniProt O60609); assay: Inhibition of GFRalpha3 (unknown origin)
T5 sequence (O60609 whole entry): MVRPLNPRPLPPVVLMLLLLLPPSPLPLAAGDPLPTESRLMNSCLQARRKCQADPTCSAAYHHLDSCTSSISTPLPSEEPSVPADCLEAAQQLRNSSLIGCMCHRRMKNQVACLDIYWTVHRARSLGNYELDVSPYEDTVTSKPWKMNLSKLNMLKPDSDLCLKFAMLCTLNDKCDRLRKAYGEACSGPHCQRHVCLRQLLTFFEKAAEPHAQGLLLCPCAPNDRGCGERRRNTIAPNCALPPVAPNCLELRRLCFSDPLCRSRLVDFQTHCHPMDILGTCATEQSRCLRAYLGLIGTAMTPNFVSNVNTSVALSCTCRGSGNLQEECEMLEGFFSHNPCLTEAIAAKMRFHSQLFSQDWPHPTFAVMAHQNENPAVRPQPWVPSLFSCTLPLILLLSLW

[6] = target: T6, GDNF family receptor alpha-3 (Homo sapiens) (UniProt O60609); assay: Inhibition of GFRalpha3 (unknown origin) assessed as maximal efficacy relative to control
T6 sequence (whole entry): T5 sequence (O60609 whole entry)

[7] = target: T2, Proto-oncogene tyrosine-protein kinase receptor Ret; assay: Inhibition of RET (unknown origin)
[8] = target: T7, GDNF family receptor alpha-1 (Homo sapiens) (UniProt P56159); assay: Inhibition of GFRalpha1 (unknown origin) assessed as maximal efficacy relative to control
T7 sequence (whole entry): T1 sequence (P56159 whole entry)

T2 sequence (P07949 whole entry): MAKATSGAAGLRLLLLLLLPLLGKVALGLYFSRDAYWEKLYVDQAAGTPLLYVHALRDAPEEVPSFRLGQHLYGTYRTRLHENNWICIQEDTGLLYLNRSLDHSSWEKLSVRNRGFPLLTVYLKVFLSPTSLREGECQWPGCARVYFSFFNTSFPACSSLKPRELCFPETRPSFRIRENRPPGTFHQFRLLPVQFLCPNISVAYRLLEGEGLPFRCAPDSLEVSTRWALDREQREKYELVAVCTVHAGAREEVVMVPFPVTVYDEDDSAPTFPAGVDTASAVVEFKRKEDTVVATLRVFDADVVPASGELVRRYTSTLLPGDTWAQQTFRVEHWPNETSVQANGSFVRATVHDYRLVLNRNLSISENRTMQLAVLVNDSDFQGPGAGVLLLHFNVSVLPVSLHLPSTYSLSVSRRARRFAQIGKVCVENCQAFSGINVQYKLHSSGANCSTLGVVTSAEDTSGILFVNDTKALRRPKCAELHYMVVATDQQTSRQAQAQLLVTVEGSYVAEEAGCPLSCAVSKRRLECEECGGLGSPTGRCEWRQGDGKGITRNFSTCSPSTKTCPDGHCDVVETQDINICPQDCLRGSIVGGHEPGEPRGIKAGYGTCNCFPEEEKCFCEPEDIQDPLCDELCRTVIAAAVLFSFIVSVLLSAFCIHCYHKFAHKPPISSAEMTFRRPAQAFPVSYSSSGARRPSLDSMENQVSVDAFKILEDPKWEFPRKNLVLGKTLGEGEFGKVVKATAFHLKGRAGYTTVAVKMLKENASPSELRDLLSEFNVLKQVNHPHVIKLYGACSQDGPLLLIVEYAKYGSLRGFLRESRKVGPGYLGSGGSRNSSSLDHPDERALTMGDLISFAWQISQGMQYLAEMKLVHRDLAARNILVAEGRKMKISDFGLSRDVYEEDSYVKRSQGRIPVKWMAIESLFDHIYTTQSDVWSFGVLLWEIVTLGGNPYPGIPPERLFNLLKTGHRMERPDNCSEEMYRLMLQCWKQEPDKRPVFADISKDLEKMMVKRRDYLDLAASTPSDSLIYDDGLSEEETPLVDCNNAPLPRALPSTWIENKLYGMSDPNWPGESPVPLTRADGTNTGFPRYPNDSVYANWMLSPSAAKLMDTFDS

| SMILES | IC50 [1] [µM] | Emax [2] [%] | IC50 [3] [µM] | Emax [4] [%] | IC50 [5] [µM] | Emax [6] [%] | IC50 [7] [µM] | Emax [8] [%] |
| --- | --- | --- | --- | --- | --- | --- | --- | --- |
| NC(=O)Cc1cccc(O[C@H]2CCc3cc(-c4cnc(Nc5ccccc5)nc4)ccc32)c1 | > 100 | 0 | > 100 | 0 | > 100 | 0 | > 100 | 0 |
| CNC(=O)[C@H](NC(=O)Cc1cccc(O[C@H]2CCc3ccccc32)c1)C1CCCCC1 | > 100 | 0 | 9.9 | 66 | 9.1 | 66 | > 100 | 0 |
| CNC(=O)[C@H](NC(=O)Cc1cccc(Oc2cnc(Nc3ccccc3)nc2)c1)C1CCCCC1 | > 100 | 0 | > 100 | 0 | > 100 | 0 | > 100 | 0 |
| CNC(=O)[C@H](NC(=O)Cc1cccc(O[C@H]2CCc3cc(-c4cncnc4)ccc32)c1)C1CCCCC1 | > 100 | 100 | > 100 | 0 | > 100 | 0 | 0.9 | 0 |
| CNC(=O)[C@H](NC(=O)Cc1cccc(O[C@H]2CCc3cc(-c4cnc(Nc5cncnc5)nc4)ccc32)c1)C1CCCCC1 | > 100 | 0 | > 100 | 0 | > 100 | 0 | > 100 | 0 |
| CNC(=O)[C@H](Cc1c[nH]cn1)NC(=O)Cc1cccc(O[C@H]2CCc3cc(-c4cnc(Nc5ccccc5)nc4)ccc32)c1 | > 100 | 65 | 3.7 | 46 | 5.4 | 70 | 1.1 | 0 |
| O[C@H]1CCc2cc(-c3cnc(Nc4ccccc4)nc3)ccc21 | > 100 | 92 | > 100 | 0 | 8.8 | 71 | 16 | 0 |

Now from value to molecule:

| IC50 [1] [µM] | Emax [2] [%] | IC50 [3] [µM] | Emax [4] [%] | IC50 [5] [µM] | Emax [6] [%] | IC50 [7] [µM] | Emax [8] [%] | SMILES |
| --- | --- | --- | --- | --- | --- | --- | --- | --- |
| 0.25 | 0 | 0.1 | 100 | 0.2 | 100 | > 100 | 86 | CNC(=O)[C@H](NC(=O)Cc1cccc(O[C@@H]2Cc3ccc(-c4cnc(Nc5ccccc5)nc4)cc3C2)c1)C1CCCCC1 (racemic) |
| > 100 | 93 | > 100 | 0 | 2.8 | 59 | 2.3 | 0 | O=C(O)Cc1cccc(O[C@H]2CCc3cc(-c4cnc(Nc5ccccc5)nc4)ccc32)c1 |
| > 100 | 0 | > 100 | 0 | > 100 | 0 | > 100 | 0 | CNC(=O)Cc1cccc(O[C@H]2CCc3cc(-c4cnc(Nc5ccccc5)nc4)ccc32)c1 |
| > 100 | 0 | 18 | 100 | 26 | 100 | > 100 | 0 | CNC(=O)[C@H](NC(=O)Cc1cccc(O[C@H]2CCc3cc(-c4cncc(Oc5ccccc5)c4)ccc32)c1)C1CCCCC1 |
| > 100 | 0 | > 100 | 0 | > 100 | 0 | > 100 | 0 | CO[C@H]1CCc2cc(-c3cnc(Nc4ccccc4)nc3)ccc21 |
| > 100 | 0 | > 100 | 0 | 7.4 | 100 | > 100 | 0 | COC(=O)[C@H](Cc1cnc[nH]1)NC(=O)Cc1cccc(O[C@H]2CCc3cc(-c4cncc(Oc5ccccc5)c4)ccc32)c1 |
| 29.9 | 0 | > 100 | 0 | 13.4 | 100 | > 100 | 97 | CNC(=O)[C@@H](Cc1c[nH]cn1)NC(=O)Cc1cccc(O[C@H]2CCc3cc(-c4cnc(Nc5ccccc5)nc4)ccc32)c1 |
| 1 | 68 | 2.5 | 69 | 1.1 | 100 | 0.8 | 79 | NC(=O)[C@H](NC(=O)Cc1cccc(O[C@H]2CCc3cc(-c4ncc(Nc5ccccc5)cn4)ccc32)c1)C1CCCCC1 |
| 2.1 | 0 | 1 | 56 | 0.7 | 71 | > 100 | 52 | CNC(=O)[C@H](NC(=O)Cc1cccc(O[C@H]2CCc3cc(-c4cnc(Nc5ccccc5)nc4)ccc32)c1)C1CCCCC1 |
